Laboratory results published in patent US11692175B2, “Methods for generation of pluripotent and multipotent cells” (The USA, as represented by the Secretary, Dept. of Health …, priority 2012, dated 2023).
Where “and” joins values, the source holds several entries; their conditions need not be identical. Equal values may be shown once.

Assays:
Jurkat T cells = assay: c-Myc mRNA in Jurkat T cells treated with thrombospondin-1 or CD47-binding peptide (real time PCR); type: cell-based, human; conditions: for c-Myc levels (FIG. 7E): CD47-binding peptide vs control peptide
Procedure: (§1) RNA extraction and Real Time PCR: Total RNA was extracted using TRIzol® reagent (Invitrogen, Rockville, Md.) 24-36 hours after transfection or as indicated. Harvested mouse tissues were frozen in liquid nitrogen or placed into RNA Later™ RNA Stabilization Reagent (Ambion, Life Technologies, Grand Island, N.Y.). Whole organs (lungs, spleen, kidney, testis, skeletal muscle, brain, heart, and liver) were homogenized in TRIzol® reagent, and RNA was isolated, cDNA was prepared using First Maxima First Strand cDNA Synthesis kit for RT-qPCR (Fermentas Life Sciences, Glen Burnie, Md.). Real Time PCR was performed using the primers listed herein as SEQ ID NOs: 3-34, and SYBR Green PCR master reaction mix (AB applied Sciences, Life Technologies, Grand Island, N.Y.) on an MJ Research OPTICON I instrument (Bio-Rad) with the following amplification program: 95° C. for 15 minutes, followed by 40 cycles of 95° C. for 15 seconds, 58° C. for 20 seconds, 72° C. for 25 seconds, and 7° C. for 1 minute. Melting curves were performed for each product from 30° C. to 95° C. reading every 0.5° C. with a 6-second dwell time. The fold changes in mRNA expression were calculated by normalizing to hypoxanthine phosphoribosyltransferase (HPRT1) and TATA-box binding protein associated factor (TAF9) for mouse tissues and endothelial cells, or β-2 microglobulin (B2M) mRNA levels for spleen and isolated splenocytes. B2M was used for normalization of mRNA levels in human cells. Note that the total RNA yield per cell was higher for all CD47-null and CD47-deficient cells and tissues as compared to WT.
Modulation of stem cell transcription factors by thrombospondin-1: Jurkat and JinB8 cells were centrifuged and re-suspended in RPMI+1% FBS at 10^6 cells/ml. Cells were plated in 12 well plates and treated with 1 μg/ml (2.2 nM) TSP1 using the indicated times and concentrations, and total RNA was isolated using TRIzol® reagent.

HUVEC [1] = assay: MTS proliferation assay of treated HUVEC; type: cell-based, human; conditions: 6 days post-treatment
Procedure: Cell proliferation assays: Equal numbers of mouse lung endothelial cells from WT and CD47 (Passage 1) were plated in 96 well plates using RPMI+1% FBS. After 72 hours, net cell proliferation was assessed by the increase in formazan absorbance versus controls assessed at time 0 using Cell Titer 96R aqueous MTS kit (Promega, Madison, Wis.). DNA synthesis was measured using a BrdU Assay (EMD Biosciences, Billerica, Mass.).
Proliferative capacities of the treated HUVEC (CD47 morpholino, 7N3 peptide, or 604 control peptide) were assessed using MTS assays.

WT Jurkat T cells = assay: QPCR analysis of c-Myc mRNA in WT Jurkat T cells treated with CD47 binding peptides; type: cell-based, human; conditions: for c-Myc expression (FIG. 21B): 1 μM or 10 μM
Procedure: FIGS. 21A and B are a pair of graphs showing QPCR analysis of c-Myc mRNA expression. WT Jurkat T cells were treated with the CD47 binding peptide 459 (also known as peptide 4N1) or control peptide 761 at 1 μM or 0.1 μM (FIG. 21A). WT Jurkat T cells were also treated with the CD47-binding peptide 7N3 or the control peptide 604 at 1 μm or 10 μM (FIG. 21B).
as §1

HUVECs = assay: Real-time PCR of HUVECs treated for three weeks with neural medium and 7N3 peptide or B6H12 antibody; type: cell-based, human
Procedure: as §1, with “WT. […]” for “WT.”

HUVEC [2] = assay: Sustained proliferation / self-renewal of HUVEC in continuous culture; type: cell-based, human; conditions: 7N3 10 μM; B6H12 1 μg/ml
Description: (§2) Human umbilical vein endothelial cells (HUVEC), which express CD47, normally become senescent with repeated passage in tissue culture (FIG. 16A).
Therefore, antisense suppression of CD47 is sufficient to induce reprogramming of primary endothelial cells of a mesodermal lineage into an ectodermal lineage.

TSP1 null cells = assay: Sustained proliferation of TSP1 null murine lung endothelial cells; type: cell-based, mouse; conditions: relative to WT cells
Description: Cell culture and reagents: Thrombospondin-1 null (Lawler et al., J Clin Invest 101, 982-992, 1998) CD47 null mice (Lindberg et al., Science 274, 795-798, 1996) extensively back-crossed onto a C57Bl/6J background and WT mice were maintained in a pathogen-free environment according to protocols approved by the NCI Animal Care and Use Committee. Mouse lung endothelial cells were isolated and their purity verified as described previously (Zhou et al., Oncogene 25, 536-545, 2006). These conditions were previously documented to reproducibly yield >95% pure endothelial cells at passage two (CD31+, smooth muscle actin-). Mouse lung endothelial cells were cultured at 37° C. with 5% CO2 using Endothelial Growth Medium-2 (EGM2) (Thermo Scientific Fisher. Inc., Waltham, Mass.). Cell populations from mouse spleens were separated using the Pan T cell Isolation (130-095-130), CD4 (L3T4) (130-049-201), CD8a (Ly-2) (130-049-401) CD11b (130-049-601), CD19 microbead kits (130-052-201) (MACS, Miltenyi Biotech Germany).
as §2

JinB8 cells = assay: c-Myc mRNA in CD47-deficient JinB8 cells treated with thrombospondin-1; type: cell-based, human; conditions: Jurkat cells lacking CD47; at 24 hours
Procedure: as §1, with “B2M was used for normalization of mRNA levels in human cells. Note that the total RNA yield per cell was higher for all CD47-null and CD47-deficient cells and tissues as compared to WT.” left out

[3] = test system: JinB8 cells re-expressing CD47; assay: c-Myc expression in JinB8 cells re-expressing CD47 treated with thrombospondin-1; type: cell-based, human; conditions: CD47 re-expressed in JinB8 cells
Procedure: JINB8 cells were transfected with CD47-V5 construct using Amaxa™ Nucleofector™ (Lonza) non-viral transfection technology. The transfection efficiency was determined by flow Cytometry. The CD47-V5 transfected cells were purified using magnetic beads bound with human CD47 antibody (B6H12). The transfected cells were loaded onto MACS column which was placed in the magnetic field of a MACS® separator (Miltenyi Biotec). The magnetic bead labeled CD47^+ cells were retained on the column. The unlabeled cells ran through and were depleted from CD47^+ cells. After removal of the column, the CD47^+ cells bound to magnetic beads were eluted. The pure population of CD47^+ cells was stably cultured using G418 (250 μg/ml). The pure population of CD47^+ and Jurkat cells were centrifuged and re-suspended in RPMI with 1% FBS at 10^6 cells/ml. Cells were plated in 12 well plates and treated with 1 μg/ml (2.2 nM) thrombospondin-1, and total RNA was isolated using TRIzol®. The relative gene expression of c-MYC was measured using GAPDH as a control.

Human rTEC = assay: RT-PCR of self-renewal genes in human renal tubular epithelial cells; type: cell-based
Procedure: FIG. 25 is a series of graphs showing that blockade of CD47 elevates self-renewal transcription factors in human renal cells. Human rTEC were treated with TSp1 (2.2 nmol/L)±a CD47 monoclonal Ab (clone B6H12, 1 μg/ml) and RT-PCR performed for the indicated targets (top, c-Myc; middle. Sox2; bottom, Klf4). Results are the mean (±S.E.M.) of three separate experiments.
TSP1 inhibits self-renewal signals in primary human renal tubular epithelial cells, and CD47 blockade therapy elevates self renewal genes in human renal cells: It is not clear what role the TSP1-CD47 signal cascade played on self-renewal signaling in specific renal cell types. We wanted to confirm in human cells that activation of CD47 inhibits self-renewal genes. Renal tubular epithelial cells (rTEC) are a primary source of injury in the kidney. Human rTEC were treated with a low concentration of exogenous TSP1 (2.2 nmol/L) and found suppression of self-renewal genes including cMyc and Sox2 and Klf4 (FIG. 25). […] Thus, in human renal cells CD47 blockade increases the stem cell-pluripotent capacity of renal cells.

[4] = real-time PCR, HUVECs three weeks in neural medium, two values per treatment

## FIRGGMYEGKK (Synthetic peptide 604) [compound 604]
Jurkat T cells
  c-Myc levels (FIG. 7E): inactive
HUVEC [1]
  proliferation (MTS): decreased proliferation
WT Jurkat T cells
  c-Myc expression (FIG. 21B): did not

## FIRVVMYEGKK (Synthetic peptide 7N3)
HUVECs; EBM serum free (neural basal) medium for 3 weeks, in words
  expression of mRNAs encoding c-Myc and other stem cell transcription factors (Sox2, Klf4, Oct4) and nestin: high expression
HUVECs; [4]
  Oct4 C(t): 34.48 and 34
  c-Myc C(t): 30.19 and 18.49
  klf4 C(t): 26.31 and 26.17
  nestin C(t): 31.6104 and 31.32
  sox2 C(t): 28.09 and 29
Jurkat T cells
  c-Myc levels (FIG. 7E): suppression
HUVEC [2]
  sustained proliferation: dramatically increased
TSP1 null cells
  proliferative response: their response was less than the WT cells
HUVEC [1]
  proliferation (MTS): enhanced proliferation
WT Jurkat T cells
  c-Myc expression (FIG. 21B): more dramatic increase

## RFYVVMWK (Synthetic peptide - 4N1) [compound 459]
WT Jurkat T cells; 0.1 μM, at 72 hours, relative to control peptide 761
  c-Myc mRNA expression (FIG. 21A): significantly increased

## TSP1: Human TSP1 purified from the supernatant of thrombin-activated platelets; CD47 ligand
Jurkat T cells; 2.2 nM thrombospondin-1
  c-Myc levels, time course: transiently induced but then strongly inhibited
Jurkat T cells; Jurkat cells
  c-MYC expression (FIG. 14D): reduces c-MYC expression
Jurkat T cells; at 24 hours
  concentration sufficient to inhibit c-Myc expression: Picomolar concentrations
JinB8 cells
  c-Myc mRNA levels: not significantly inhibited
[3]
  c-Myc expression: reduces c-MYC expression
[3]; listed as thrombospondin-1
  c-Myc expression: restored the ability of thrombospondin-1 to inhibit c-Myc expression
Human rTEC; TSP1 2.2 nM, low passage cells
  expression of self-renewal transcription genes: decreased expression of self-renewal transcription genes
Human rTEC; TSP1 2.2 nmol/L, B6H12 1 μg/ml
  Klf4 expression: suppression
  Sox2 expression: suppression
  cMyc expression: suppression
